The source of these data is patent US20090005398A1, “Methods For The Treatment of Central Nervous System Tumors” (priority 2007, published 2009).

The IC50 is the concentration that gives 50% inhibition. Higher therefore signals weaker potency in that assay.

Holding throughout (assay type): cell-based
Assay [1] relates to A172. Kind of assay: Multiple cell line screen, cell proliferation. The settings on record: Homo sapiens, A 172, 72 h; glioblastoma; nuclei count, 3 days. On the procedure:
(§1) Growth properties for multiple cell lines were used to determine two seeding densities for each cell line that would be used in the screen. Cell lines were thawed and grown to 70-80% confluency before being used in the assay. On day −1, cells were seeded at 2 densities in 384-well plates and incubated at 37° C. overnight. Stock compound plates were prepared in advance which contained dimethyl sulfoxide (DMSO) alone and a 9-point half-log decreasing dose range of the compound in DMSO. These plates were stored at −80° C. and each plate was only thawed once and used. On day 0, the main assay plates received compound or DMSO via a sonic delivery system (ECHO). The highest final concentration of compound of the dose range in the culture plates was 10 uM. These plates were cultured at 37° C. for 3 days.
(§2) On day 3, the compound treated plates were stained and fixed to measure proliferation, apoptosis, and mitotic index. A nuclear stain was used to identify cells in the wells. By counting the number of nuclei, the proliferation index of compound treated groups were calculated as a percentage relative to the DMSO control, which was set to 100%. The IC50 values were calculated using model 205 in ExcelFit.

The next assay deals with CCF-SSTG1. Kind of assay: Multiple cell line screen, cell proliferation. Conditions: 72 h; astrocytoma; nuclei count, 3 days. The procedure: as §1, §2
The subject of another assay is D283Med. Kind of assay: Multiple cell line screen, cell proliferation. The settings on record: Homo sapiens, D283 Med, 72 h; medulloblastoma; nuclei count, 3 days. The procedure:
as §1, §2

The test system of another assay is DBTRG-05MG. Kind of assay: Multiple cell line screen, cell proliferation. The settings on record: Homo sapiens, 72 h, glioblastoma, nuclei count, 3 days. On the procedure:
as §1, §2

A further assay concerns DK-MG. Kind of assay: Multiple cell line screen, cell proliferation. The settings on record: 72 h; glioblastoma; nuclei count, 3 days. On the procedure:
as §1, §2

The test system of assay [2] is H4. Kind of assay: Multiple cell line screen, cell proliferation. The settings on record: 72 h; glioma; nuclei count, 3 days. The procedure:
as §1, §2

The subject of another assay is SF-268. Kind of assay: Multiple cell line screen, cell proliferation. Conditions: Homo sapiens, SF-268, 72 h; glioblastoma; nuclei count, 3 days. On the procedure:
as §1, §2

A further assay deals with SF-295. The experiment in a line: Multiple cell line screen, cell proliferation. The settings on record: Homo sapiens, SF-295, 72 h; glioblastoma; nuclei count, 3 days. On the procedure:
as §1, §2

In assay [3] the test system is SF-539. The experiment in a line: Multiple cell line screen, cell proliferation. Conditions: Homo sapiens, SF-539, 72 h; astrocytoma; nuclei count, 3 days. On the procedure:
as §1, §2

Assay [4] deals with SNB-19. Kind of assay: Multiple cell line screen, cell proliferation. The settings on record: Homo sapiens, SNB-19, 72 h; glioblastoma; nuclei count, 3 days. On the procedure:
as §1, §2

The next assay relates to SNB-75. The experiment in a line: Multiple cell line screen, cell proliferation. Conditions: Homo sapiens, SNB-75, 72 h; glioblastoma; nuclei count, 3 days. The procedure: as §1, §2
For assay [5], the system named is SW1088. The experiment in a line: Multiple cell line screen, cell proliferation. The settings on record: Homo sapiens, SW1088, 72 h; astrocytoma; nuclei count, 3 days. The procedure:
as §1, §2

The next assay concerns U-87MG. Kind of assay: Multiple cell line screen, cell proliferation. Conditions: Homo sapiens, 72 h, glioblastoma, astrocytoma, nuclei count, 3 days. The procedure: as §1, §2
Assay [6] relates to A172. The experiment in a line: Washout assay, recovery of cell growth (MTT). Conditions: A172, glioblastoma; 3 days exposure then washout. On the procedure: (§3) Seven glioma cell lines that can double at least once over three days were thawed and grown to 70-80% confluency before being used in the assay. On day 1, for each cell line, 2-3×10^5 cells were seeded into each well in 6-well cell culture plates and incubated at 37° C. overnight. […] The plates were incubated at 37° C. for 3 days.
(§4) On day 5, the compound was efficiently washed four times with culture medium supplemented with 20% fetal bovine serum (FBS) and then washed once in buffered saline solution (PBS). The cells were trypsinized. For each of the concentrations, compound-treated cell lines were plated into five 96-well plates at 5000 cells per well. For the next 4 consecutive days, one plate of the cells was taken out of the incubator and cell proliferation was measured by MTT ELISA assay.
(§5) The washout assay is designed to follow the cells' recovery from exposure to the compound. Each glioma cell line was assayed at least twice. The criteria for evaluating sensitivity or resistance was Last Growth Back Concentration (LGC), if LGC<=30 nM, the cell line is considered sensitive; if LGC>=1 uM, it is considered resistant; if LGC is in between these two concentrations, the cell line is considered intermediate. Based on criteria set, all the glioma cell lines appeared to be sensitive to the compound of Example 1.

In assay [7] the test system is H4. The experiment in a line: Washout assay, recovery of cell growth (MTT). Conditions: H4, glioma; 3 days exposure then washout. On the procedure: as §3, §4, §5
Assay [8] relates to SF-539. Kind of assay: Washout assay, recovery of cell growth (MTT). The settings on record: SF-539, astrocytoma; 3 days exposure then washout. The procedure:
as §3, §4, §5

In assay [9] the test system is SNB-19. The experiment in a line: Washout assay, recovery of cell growth (MTT). The settings on record: SNB-19, glioblastoma; 3 days exposure then washout. The procedure:
as §3, §4, §5

Assay [10] has as its system SW1088. The experiment in a line: Washout assay, recovery of cell growth (MTT). The settings on record: SW1088, astrocytoma; 3 days exposure then washout. On the procedure: as §3, §4, §5

Structures are written as SMILES.

Turning to `C[C@@H](Oc1cc(-n2cnc3ccc(CN4CCN(C)CC4)cc32)sc1C(N)=O)c1ccccc1C(F)(F)F` [Example 1, 5-{6-[(4-Methylpiperazin-1-yl)methyl]-1H-benzimidazol-1-yl}-3-{(1R)-1-[2-(trifluoromethyl)phenyl]ethoxy}thiophene-2-carboxamide], the IC50 in the assay on A172 [1], in the assay on CCF-SSTG1, in the assay on D283Med, in the assay on DBTRG-05MG, with DK-MG and in the assay on H4 [2] was below 50 nM in each case. Further, the IC50 with SF-268 is below 50 nM; with SF-295, below 50 nM; in the assay on SF-539 [3], below 50 nM; with SNB-19 [4], below 50 nM; in the assay with SNB-75 it was 50 to 100 nM; in the assay with SW1088 [5] it was below 50 nM. In the assay with U-87MG, the IC50 is below 50 nM. Moreover, the “LGC (Last Growth Back Concentration)” value in the assay with A172 [6] was below 10 nM; with H4 [7] it was 10 nM; in the assay on SF-539 [8], 30 nM; in the assay with SNB-19 [9] it was 10 nM; in the assay with SW1088 [10], 10 nM.
